The values below come from patent publication US10100058B2, “Fused heterocyclic compounds as CaM kinase inhibitors” (Gilead Sciences, Inc., priority 2016, dated 2018).

The target of this assay is recombinant CaMKIIδ (Homo sapiens (Human), UniProt Q13557). Put plainly: CaMKIIδ biochemical assay (HTRF). The settings on record: 10 pM CaMKIIδ, 110 nM calmodulin, 12 μM ATP, 1 hour; read-out: CAMKIID-HTRF-384V2 (IC50 - nM). The method, then:
CaMKIIδ Biochemical Assay
The biochemical activity of recombinant CaMKIIδ was measured by monitoring the phosphorylation of a target peptide using Homogenous Time Resolved Fluorescence (HTRF) technology from CisBio Bioassays.
Turning to `CCN(CC)[C@@H](C)CNC(=O)c1cc(-c2cnn3ccc(-c4cccs4)nc23)nc(N2CC(C#N)C2)c1` [Example 142, (S)-2-(3-cyanoazetidin-1-yl)-N-(2-(diethylamino)propyl)-6-(5-(thiophen-2-yl)pyrazolo[1,5-a]pyrimidin-3-yl)isonicotinamide], the IC50 (usually the concentration that inhibits the measured activity by half) amounted to 0.1 nM. Take `CCOC1CN(c2cc(C(=O)NC[C@H](C)N(CC)CC)cc(-c3cnn4ccc(-c5cccs5)nc34)n2)C1` [Example 143, (S)—N-(2-(diethylamino)propyl)-2-(3-ethoxyazetidin-1-yl)-6-(5-(thiophen-2-yl)pyrazolo[1,5-a]pyrimidin-3-yl)isonicotinamide]: the IC50 turned out to be 0.17 nM.

Regarding `CCN(CC)[C@@H](C)CNC(=O)c1cc(-c2cnn3ccc(-c4cccs4)nc23)nc(N2CC(OC(F)F)C2)c1` [Example 144, (S)—N-(2-(diethylamino)propyl)-2-(3-(difluoromethoxy)azetidin-1-yl)-6-(5-(thiophen-2-yl)pyrazolo[1,5-a]pyrimidin-3-yl)isonicotinamide], the IC50 came to 0.18 nM. Then `CCN(CC)[C@@H](C)CNC(=O)c1cc(-c2cnn3ccc(-c4cccs4)nc23)nc(N2CCC2)c1` [Example 146, (S)-2-(azetidin-1-yl)-N-(2-(diethylamino)propyl)-6-(5-(thiophen-2-yl)pyrazolo[1,5-a]pyrimidin-3-yl)isonicotinamide], with 0.19 nM; and `CCN(CC)[C@@H](C)CNC(=O)c1cc(-c2cnn3ccc(-c4cccs4)nc23)nc(N2CC(C(F)(F)F)C2)c1` [Example 147, (S)—N-(2-(diethylamino)propyl)-2-(5-(thiophen-2-yl)pyrazolo[1,5-a]pyrimidin-3-yl)-6-(3-(trifluoromethyl)azetidin-1-yl)isonicotinamide], with 0.34 nM; and `CCN(CC)[C@@H](C)CNC(=O)c1cc(-c2cnn3ccc(-c4cccs4)nc23)nc(N2CC(F)(F)C2)c1` [Example 148, (S)—N-(2-(diethylamino)propyl)-2-(3,3-difluoroazetidin-1-yl)-6-(5-(thiophen-2-yl)pyrazolo[1,5-a]pyrimidin-3-yl)isonicotinamide], with 0.21 nM. For `CCN(CC)[C@@H](C)CNC(=O)c1cc(-c2cnn3ccc(-c4cccs4)nc23)nc(N2CC(S(C)(=O)=O)C2)c1` [Example 149, (S)—N-(2-(diethylamino)propyl)-2-(3-(methylsulfonyl)azetidin-1-yl)-6-(5-(thiophen-2-yl)pyrazolo[1,5-a]pyrimidin-3-yl)isonicotinamide], the IC50 was 0.14 nM. The figure for `CCN(CC)[C@@H](C)CNC(=O)c1cc(-c2cnn3ccc(-c4cccs4)nc23)nc(N2CC(S(=O)(=O)NC)C2)c1` [Example 150, (S)—N-(2-(diethylamino)propyl)-2-(3-(N-methylsulfamoyl)azetidin-1-yl)-6-(5-(thiophen-2-yl)pyrazolo[1,5-a]pyrimidin-3-yl)isonicotinamide] is 0.2 nM; for `CCN(CC)[C@@H](C)CNC(=O)c1cc(-c2cnn3ccc(-c4cccs4)nc23)nc(N2CC(S(=O)(=O)NC3CC3)C2)c1` [Example 151, (S)-2-(3-(N-cyclopropylsulfamoyl)azetidin-1-yl)-N-(2-(diethylamino)propyl)-6-(5-(thiophen-2-yl)pyrazolo[1,5-a]pyrimidin-3-yl)isonicotinamide] it is 0.32 nM; for `CCN(CC)[C@@H](C)CNC(=O)c1cc(-c2cnn3ccc(-c4cccs4)nc23)nc(N2CC(C)(C)C2)c1` [Example 152, (S)—N-(2-(diethylamino)propyl)-2-(3,3-dimethylazetidin-1-yl)-6-(5-(thiophen-2-yl)pyrazolo[1,5-a]pyrimidin-3-yl)isonicotinamide] it is 0.59 nM. The figure for `CCN(CC)[C@@H](C)CNC(=O)c1cc(-c2cnn3ccc(-c4cccs4)nc23)nc(N2CC(F)C2)c1` [Example 153, (S)—N-(2-(diethylamino)propyl)-2-(3-fluoroazetidin-1-yl)-6-(5-(thiophen-2-yl)pyrazolo[1,5-a]pyrimidin-3-yl)isonicotinamide] is 0.13 nM.

On to `CCN(CC)[C@@H](C)CNC(=O)c1cc(-c2cnn3ccc(-c4cccs4)nc23)nc(N2CC(NS(=O)(=O)C3CC3)C2)c1` [Example 154, (S)-2-(3-(cyclopropanesulfonamido)azetidin-1-yl)-N-(2-(diethylamino)propyl)-6-(5-(thiophen-2-yl)pyrazolo[1,5-a]pyrimidin-3-yl)isonicotinamide], for which the IC50 is 0.28 nM. Then `CCN(CC)[C@@H](C)CNC(=O)c1cc(-c2cnn3ccc(-c4cccs4)nc23)nc(N2CCn3ccnc3C2)c1` [Example 155, (S)—N-(2-(diethylamino)propyl)-2-(5,6-dihydroimidazo[1,2-a]pyrazin-7(8H)-yl)-6-(5-(thiophen-2-yl)pyrazolo[1,5-a]pyrimidin-3-yl)isonicotinamide], with 0.32 nM; and `CCN(CC)[C@@H](C)CNC(=O)c1cc(-c2cnn3ccc(-c4cccs4)nc23)nc(N2CCC(O)C(F)(F)C2)c1` (stereo partly drawn) [Example 156, N—((S)-2-(diethylamino)propyl)-2-(3,3-difluoro-4-hydroxypiperidin-1-yl)-6-(5-(thiophen-2-yl)pyrazolo[1,5-a]pyrimidin-3-yl)isonicotinamide], with 0.85 nM; and `CCN(CC)[C@@H](C)CNC(=O)c1cc(NCCN(C)C)nc(-c2cnn3ccc(-c4cccs4)nc23)c1` [Example 157, (S)—N-(2-(diethylamino)propyl)-2-((2-(dimethylamino)ethyl)amino)-6-(5-(thiophen-2-yl)pyrazolo[1,5-a]pyrimidin-3-yl)isonicotinamide], with 0.07 nM.

In the case of `CCN(CC)[C@@H](C)CNC(=O)c1cc(NCCN(C)C)nc(-c2cnn3ccc(-c4ccccc4)nc23)c1` [Example 158, (S)—N-(2-(diethylamino)propyl)-2-((2-(dimethylamino)ethyl)amino)-6-(5-phenylpyrazolo[1,5-a]pyrimidin-3-yl)isonicotinamide], the IC50 amounted to 0.56 nM. For `COC1CN(c2cc(C(=O)NCC3(N)CCC3)cc(-c3cnn4ccc(-c5ccccc5)nc34)n2)C1` [Example 159, N-((1-aminocyclobutyl)methyl)-2-(3-methoxyazetidin-1-yl)-6-(5-phenylpyrazolo[1,5-a]pyrimidin-3-yl)isonicotinamide], the IC50 came to 84.6 nM.

Consider `CCN(CC)[C@@H](C)CNC(=O)c1cc(-c2cnn3ccc(-c4ccccc4)nc23)nc(N2CC(OC)C2)c1` [Example 160, (S)—N-(2-(diethylamino)propyl)-2-(3-methoxyazetidin-1-yl)-6-(5-phenylpyrazolo[1,5-a]pyrimidin-3-yl)isonicotinamide], for which the IC50 stood at 1.15 nM. The figure for `COC1CN(c2cc(C(=O)NCC34CCCN3CCC4)cc(-c3cnn4ccc(-c5ccccc5)nc34)n2)C1` [Example 161, N-((hexahydro-1H-pyrrolizin-7a-yl)methyl)-2-(3-methoxyazetidin-1-yl)-6-(5-phenylpyrazolo[1,5-a]pyrimidin-3-yl)isonicotinamide] is 105 nM; for `CCN(CC)[C@@H](C)CNC(=O)c1cc(-c2cnn3ccc(-c4cccs4)nc23)nc(N2CCC(C)(O)CC2)c1` [Example 163, (S)—N-(2-(diethylamino)propyl)-2-(4-hydroxy-4-methylpiperidin-1-yl)-6-(5-(thiophen-2-yl)pyrazolo[1,5-a]pyrimidin-3-yl)isonicotinamide] it is 0.18 nM.

With `CCN(CC)[C@@H](C)CNC(=O)c1cc(NCC2(N3CCCC3)COC2)nc(-c2cnn3ccc(-c4cccs4)nc23)c1` [Example 164, (S)—N-(2-(diethylamino)propyl)-2-(((3-(pyrrolidin-1-yl)oxetan-3-yl)methyl)amino)-6-(5-(thiophen-2-yl)pyrazolo[1,5-a]pyrimidin-3-yl)isonicotinamide], the IC50 was 0.38 nM. Then `CCN(CC)[C@@H](C)CNC(=O)c1cc(-c2cnn3ccc(-c4ccsc4)nc23)nc(N2CC(OC)C2)c1` [Example 165, (S)—N-(2-(diethylamino)propyl)-2-(3-methoxyazetidin-1-yl)-6-(5-(thiophen-3-yl)pyrazolo[1,5-a]pyrimidin-3-yl)isonicotinamide], with 0.13 nM; and `CCN(CC)[C@@H](C)CNC(=O)c1cc(-c2cnn3ccc(-c4cncnc4)nc23)nc(N2CC(OC)C2)c1` [Example 166, (S)—N-(2-(diethylamino)propyl)-2-(3-methoxyazetidin-1-yl)-6-(5-(pyrimidin-5-yl)pyrazolo[1,5-a]pyrimidin-3-yl)isonicotinamide], with 26 nM; and `CCN(CC)[C@@H](C)CNC(=O)c1cc(-c2cnn3ccc(-c4cccs4)nc23)nc(N2CCCS2(=O)=O)c1` [Example 167, (S)—N-(2-(diethylamino)propyl)-2-(1,1-dioxidoisothiazolidin-2-yl)-6-(5-(thiophen-2-yl)pyrazolo[1,5-a]pyrimidin-3-yl)isonicotinamide], with 0.16 nM. The figure for `C[C@H](N)CNC(=O)c1cc(-c2cnn3ccc(-c4cccs4)nc23)nc(N2CC(O)C2)c1` [Example 168, (S)—N-(2-aminopropyl)-2-(3-hydroxyazetidin-1-yl)-6-(5-(thiophen-2-yl)pyrazolo[1,5-a]pyrimidin-3-yl)isonicotinamide] is 18.1 nM; for `CCN[C@@H](C)CNC(=O)c1cc(-c2cnn3ccc(-c4cccs4)nc23)nc(N2CC(O)C2)c1` [Example 169, (S)—N-(2-(ethylamino)propyl)-2-(3-hydroxyazetidin-1-yl)-6-(5-(thiophen-2-yl)pyrazolo[1,5-a]pyrimidin-3-yl)isonicotinamide] it is 9.11 nM; for `COC1CN(c2cc(C(=O)NCC3(N)CCC3)cc(-c3cnn4ccc(-c5cccs5)nc34)n2)C1` [Example 170, N-((1-aminocyclobutyl)methyl)-2-(3-methoxyazetidin-1-yl)-6-(5-(thiophen-2-yl)pyrazolo[1,5-a]pyrimidin-3-yl)isonicotinamide] it is 19.9 nM. The figure for `COC1CN(c2cc(C(=O)NC[C@H](C)N)cc(-c3cnn4ccc(-c5cccs5)nc34)n2)C1` [Example 171, (S)—N-(2-aminopropyl)-2-(3-methoxyazetidin-1-yl)-6-(5-(thiophen-2-yl)pyrazolo[1,5-a]pyrimidin-3-yl)isonicotinamide] is 18.8 nM.
